Measured values from publication PMC12463534, “Exploring the Anticancer Properties of 4-Phenylthiazole-Based Ru(II) and Os(II) Metallacycles Featuring 1-Methylimidazole as N-Donor Functionality” (Bioinorganic Chemistry and Applications, 2025).
Where two headings read alike, the source gives them in different places.

Experiments:
[1] = tested on: CH1/PA-1 ovarian teratocarcinoma cells; design: method as in PMID 38426897; conditions: MTT assay, exposure time 96 h; ref [5]; read-out: 50% inhibitory concentration CH1 (chlorido complexes, reference) (converted); cited from earlier work
[2] = tested on: SW480 colon adenocarcinoma cells; design: method as in PMID 38426897; conditions: MTT assay, exposure time 96 h; ref [5]; read-out: 50% inhibitory concentration SW480 (chlorido complexes, reference) (converted); cited from earlier work
[3] = tested on: A549 lung adenocarcinoma cells; design: method as in PMID 38426897; conditions: MTT assay, exposure time 96 h; ref [5]; read-out: 50% inhibitory concentration A549 (chlorido complexes, reference) (converted); cited from earlier work
[4] = tested on: A549 lung adenocarcinoma cells; test: MTT assay, inhibition of cancer cell growth, A549; conditions: read-out: 50% inhibitory concentration A549, exposure time 96 h
Method: (§2) CH1/PA-1 ovarian teratocarcinoma cells (CH1, RRID: CVCL_4992, provided by L. R. Kelland, CRC Center for Cancer Therapeutics, Institute of Cancer Research, Sutton, UK; confirmed by STR profiling as PA-1 ovarian teratocarcinoma cells at Multiplexion, Heidelberg, Germany), SW480 colon adenocarcinoma (RRID: CVCL_0546), and A549 lung adenocarcinoma cells (NCI-H2618, RRID: CVCL_A549; both cell lines were obtained from the American Type Culture Collection (ATCC), Manassas, VA, USA) were grown as adherent cultures in 75-cm^2 culture flasks (Starlab, Hamburg, Germany) by using minimal essential medium (MEM) supplemented with 1 mM sodium pyruvate, 4 mM L-glutamine, 1% (v/v) nonessential amino acids from 100-fold stock (all purchased from Sigma-Aldrich), and 10% heat-inactivated fetal bovine serum (Serana, Pessin, Germany).
(§3) The 3-(4,5-dimethylthiazol-2-yl)-2,5-diphenyl-2H tetrazolium bromide (MTT, Acros Organics, Geel, Belgium) assay was used to detect the cytotoxicity of the compounds after 96-h incubation. For this purpose, cells were harvested from culture flasks by trypsinization, seeded in 100-μL aliquots into 96-well microculture plates (Starlab, UK) in densities of 1 × 10^3 (CH1/PA-1), 2 × 10^3 (SW480), and 3 × 10^3 (A549) cells per well and incubated for 24 h prior to exposure to the test compounds. Stock solutions of test compounds were prepared in DMF, which were then diluted in MEM (not to exceed a final content of 0.5% v/v of organic solvent in the test plates), and serial dilutions were added in aliquots of 100 μL per well. […] After incubation for 4 h, the medium/MTT mixtures were removed, and the produced formazan crystals were dissolved in 150 μL DMSO per well. Optical densities at 550 nm were measured spectrophotometrically with a ELx808 Absorbance Microplate Reader (Bio-Tek, Winooski, VT, USA) by using a reference wavelength of 690 nm to correct for unspecific absorption.

SW480 cancer cells = test: Cellular accumulation (ICP-MS) in SW480 cells; conditions: 50 μM, 0.5% DMF in MEM, SW480, exposure time 2 h
Method: (§1) As the coordinated p-cym and leaving groups are present in all synthesized complexes, we focused on the differently substituted 4-phenylthiazoles for estimated changes in lipophilicity.
Cellular accumulation of the compounds was studied based on a method described previously with modifications. 1.8 × 10^5 SW480 cells per well were seeded in aliquots of 1 mL of complete MEM (see above) into 12-well plates (CytoOne, tissue culture treated, Starlab) and incubated at 37°C for 24 h. Then, cells were exposed for 2 h at 37°C to 50 μM solutions of the test compounds (containing 0.5% DMF) in fresh 0.5 mL of complete MEM upon exchange of the medium. Afterward, cells were washed three times with 1 mL PBS per well, lysed with 0.4 mL sub-boiled HNO3 per well for 1 h at room temperature, and 0.3 mL of each sample was diluted with 7.7 mL Milli-Q water. Adsorption/desorption controls were prepared in the same manner in cell-free wells. Ruthenium content was quantified by ICP-MS using an ICP-quadrupole MS Agilent 7800 instrument (Agilent Technologies, Waldbronn, Germany) as described previously.

Solubility in 1% DMF/PBS = test: Solubility in 1% DMF/PBS
From the text: Solubility is an important factor for the application of metallodrugs. DMF was used as solubilizer to allow comparison to the respective chlorido complexes where the usage of DMSO would lead to stable DMSO adducts.
as §1

[5] = tested on: CH1/PA-1 ovarian teratocarcinoma cells; test: MTT assay, inhibition of cancer cell growth, CH1/PA-1; conditions: read-out: 50% inhibitory concentration CH1, exposure time 96 h
Method: as §2, §3

[6] = tested on: SW480 colon adenocarcinoma cells; test: MTT assay, inhibition of cancer cell growth, SW480; conditions: read-out: 50% inhibitory concentration SW480, exposure time 96 h
Method: as §2, §3

[7] = tested on: G4 forming sequences (h-Telo, bcl2, hTERT, Kit1, Kit2) and dsDNA; test: FRET melting assay, G-quadruplex / B-DNA interaction; format: binding, human; conditions: 60 mM potassium cacodylate pH 7.4, 2 h incubation
Method: G4s are DNA secondary motifs that play crucial roles in cancer development. […] The complexes were incubated with different G4 forming sequences: one derived from human telomere-forming (h-Telo) and four corresponding to promoter regions of oncogenes, namely, bcl2, hTERT, Kit1, and Kit2. For comparison, a self-complementary sequence called dsDNA was used to represent B-DNA (Table S2).
FRET experiments were conducted using an Applied Biosystems QuantStudio 6 PCR cycler in a 96-well format equipped with a FAM (6-carboxyfluorescein) filter. Oligonucleotide stock solutions, labelled with FAM and TAMRA (6-carboxytetramethylrhodamine) probes, were diluted to the desired concentration in a 60-mM potassium cacodylate buffer (pH 7.4). To fold the oligonucleotides into their B-DNA or G4 topologies, the solutions were heated to 95°C for 5 min and then allowed to cool slowly to room temperature overnight. The final concentration of the oligonucleotides was 0.2 μM, with a total volume of 30 μL in each well. Metal complexes were dissolved in DMF to prepare 2 mM stock solutions and further diluted with the buffer, where DMF concentration never exceeded 0.05%. Mixtures of oligonucleotides and metal compounds were left at room temperature for 2 h. Data were collected twice, each time in duplicate, over a temperature range of 25°C–95°C, with a ramp of 1°C every 30 s. FAM emission data were normalized from 0 to 1 to compare different datasets. After data normalization, we extrapolated the T1/2 values, i.e., the temperature at which normalized FAM emission is 0.5. The DNA concentration is expressed in strands.

[8] = tested on: HCT116 multicellular tumor spheroids (3D); test: Resazurin assay, HCT116 3D multicellular tumor spheroids; conditions: read-out: IC50 3D; HCT116 3D spheroids, resazurin assay, 96 h exposure
Method: (§4) Both models were investigated by the fluorimetric resazurin assay after 96-h exposure.
(§5) HCT116 colorectal carcinoma cells (RRID:CVCL_0291 from ATCC) were cultivated in McCoy's 5A medium, supplemented with 10% heat-inactivated fetal bovine serum and 4 mM L-glutamine.
(§6) For 2D experiments, HCT116 cells were harvested from culture flasks by trypsinization, seeded in 100-μL aliquots into 96-well microculture plates (CytoOne, TC-treated, from Starlab) in densities of 2 × 10^3 cells per well, and incubated for 24 h prior to exposure to the test compounds. […] Stock solutions of test compounds were prepared in DMF, which were then diluted in McCoy's 5A-supplemented medium (not to exceed a final content of 0.5% v/v of organic solvent in the test plates), and serial dilutions were added in aliquots of 100 μL per well. […] After incubation for 4 h, fluorescence was measured with a microplate reader (Bio-Tek, SynergyHT) at a wavelength of 530 nm, additionally using a reference wavelength of 620 nm.

SW480 cells = test: DCFH-DA assay, cellular ROS levels; format: cell-based, human; conditions: for Effect on intracellular ROS levels: 2 h, concentration dependent
Method: For this approach, SW480 cells were subjected to the 2′,7′-dichlorofluorescin-diacetate (DCFH-DA) assay.
SW480 colon adenocarcinoma cells were trypsinized for 5 min in a humidified incubator at 37°C and under a 5% CO2 atmosphere. Supplemented MEM was added to stop trypsinization, and cells were centrifuged for 3 min at 1200 rpm (Heraeus Megafuge 1.0R). After cell counting, SW480 cells were seeded in 100-μL aliquots in densities of 2.5 × 10^4 cells/well into 96-well clear flat-bottom microplates (CytoOne, TC-treated, from Starlab). After incubation for 24 h, cells were washed with 200 μL of Hanks' balanced salt solution (HBSS; Sigma-Aldrich; supplemented with 1% heat-inactivated FCS). […] After washing cells with 200 μL of supplemented HBSS, serially diluted test compounds in phenol-red-free Opti-MEM (Gibco), supplemented with 1% heat-inactivated FCS, were added in 200-μl triplicates and tert-butyl hydroperoxide (TBHP) was applied as positive control. […] Blank-corrected values were calculated relative to negative controls (treated with drug-free supplemented Opti-MEM) from three independent experiments.

[9] = tested on: HCT116 colorectal cancer cell line (2D); test: Resazurin assay, HCT116 2D (monolayer) culture; conditions: read-out: IC50 2D, resazurin assay, 96 h exposure
Method: as §4, §5, §6

| SMILES | IC50 [1] [µM] | IC50 [2] [µM] | IC50 [3] [µM] | IC50 [4] [µM] | IC50 [5] [µM] | IC50 [6] [µM] | also measured |
| --- | --- | --- | --- | --- | --- | --- | --- |
| Cc1ccc(C(C)C)cc1.Fc1ccc(-c2cscn2)[c]([Ru][Cl])c1 [Compound 1b] | 3.4 | 8.6 | 16 |  |  |  |  |
| COc1ccc(-c2cscn2)[c]([Ru][Cl])c1.Cc1ccc(C(C)C)cc1 [Compound 1e] | 7.3 | 17 | 27 |  |  |  |  |
| Cc1ccc(C(C)C)cc1.[Cl][Os][c]1ccccc1-c1cscn1 [Compound 2a] | 3 | 9.3 | 17 |  |  |  |  |
| Cc1ccc(C(C)C)cc1.Fc1ccc(-c2cscn2)[c]([Os][Cl])c1 [Compound 2b] | 2 | 7.1 | 10 |  |  |  |  |
| CS(=O)(=O)c1ccc(-c2cscn2)[c]([Os][Cl])c1.Cc1ccc(C(C)C)cc1 [Compound 2c] | 0.83 | 4.4 | 10 |  |  |  |  |
| Cc1ccc(-c2cscn2)[c]([Os][Cl])c1.Cc1ccc(C(C)C)cc1 [Compound 2d] | 3.7 | 9.3 | 17 |  |  |  |  |
| COc1ccc(-c2cscn2)[c]([Os][Cl])c1.Cc1ccc(C(C)C)cc1 [Compound 2e] | 2.2 | 7.1 | 14 |  |  |  |  |
| Cc1ccc(C(C)C)cc1.Cn1cc[n+]([Ru-]2[c]3cc(F)ccc3-c3csc[n+]32)c1.O=[N+]([O-])[O-] [Compound 3b, [((3-κN)-1-Methylimidazole)(4-(4-fluorophenyl)thiazolato-κN,κC2′)(η^6-p-cymene)ruthenium(II)] Nitrate] |  |  |  | 20 ± 3 | 2.8 ± 0.2 | 7.9 ± 1.5 | Cellular accumulation, fg Ru/cell (SW480 cancer cells): 470 ± 71 fg Ru/cell; Solubility (Solubility in 1% DMF/PBS): 8.82 mM |
| Cc1ccc(C(C)C)cc1.Cc1ccc2[c](c1)[Ru-]([n+]1ccn(C)c1)[n+]1cscc1-2.O=[N+]([O-])[O-] [Compound 3d, [((3-κN)-1-Methylimidazole)(4-(4-methylphenyl)thiazolato-κN,κC2′)(η^6-p-cymene)ruthenium(II)] Nitrate] |  |  |  | 7.2 ± 1 | 1.61 ± 0.04 | 3.8 ± 0.3 | Cellular accumulation, fg Ru/cell (SW480 cancer cells): 477 ± 47 fg Ru/cell; Solubility (Solubility in 1% DMF/PBS): 8.92 mM; Stabilization of oligonucleotides (G4s or B-DNA) [7]: No stabilization |
| COc1ccc2[c](c1)[Ru-]([n+]1ccn(C)c1)[n+]1cscc1-2.Cc1ccc(C(C)C)cc1.O=[N+]([O-])[O-] [Compound 3e, [((3-κN)-1-Methylimidazole)(4-(4-methoxyphenyl)thiazolato-κN,κC2′)(η^6-p-cymene)ruthenium(II)] Nitrate] |  |  |  | 14 ± 1 | 1.8 ± 0.3 | 5.5 ± 2.2 | Cellular accumulation, fg Ru/cell (SW480 cancer cells): 246 ± 47 fg Ru/cell; Solubility (Solubility in 1% DMF/PBS): 15.6 mM |
| Cc1ccc(C(C)C)cc1.Cn1cc[n+]([Os-]2[c]3ccccc3-c3csc[n+]32)c1.O=[N+]([O-])[O-] [Compound 4a, [((3-κN)-1-Methylimidazole)(4-phenylthiazolato-κN,κC2′)(η^6-p-cymene)osmium(II)] Nitrate] |  |  |  | 12 ± 1 | 2.3 ± 0.2 | 5.9 ± 1.9 | IC50 [8]: 9.4 ± 4.6 µM; Effect on intracellular ROS levels (SW480 cells): initially lowers ROS levels; IC50 [9]: 9.6 ± 1.2 µM |
| Cc1ccc(C(C)C)cc1.Cn1cc[n+]([Os-]2[c]3cc(F)ccc3-c3csc[n+]32)c1.O=[N+]([O-])O [Compound 4b, [((3-κN)-1-Methylimidazole)(4-(4-fluorophenyl)thiazolato-κN,κC2′)(η^6-p-cymene)osmium(II)] Nitrate] |  |  |  | 20 ± 2 | 2.7 ± 0.2 | 7.4 ± 2.3 |  |
| Cc1ccc(C(C)C)cc1.Cn1cc[n+]([Os-]2[c]3cc(S(C)(=O)=O)ccc3-c3csc[n+]32)c1.O=[N+]([O-])[O-] [Compound 4c, [((3-κN)-1-Methylimidazole)(4-(4-(methylsulfonyl)phenyl)thiazolato-κN,κC2′)(η^6-p-cymene)osmium(II)] Nitrate] |  |  |  | > 200 | > 200 | > 200 | IC50 [8]: 344 ± 19 µM; Effect on intracellular ROS levels (SW480 cells): initially lowers ROS levels; IC50 [9]: > 200 µM |
| Cc1ccc(C(C)C)cc1.Cc1ccc2[c](c1)[Os-]([n+]1ccn(C)c1)[n+]1cscc1-2.O=[N+]([O-])O [Compound 4d, [((3-κN)-1-Methylimidazole)(4-(4-methylphenyl)thiazolato-κN,κC2′)(η^6-p-cymene)osmium(II)] Nitrate] |  |  |  | 7.1 ± 0.6 | 1.2 ± 0.2 | 3.4 ± 0.9 |  |
| COc1ccc2[c](c1)[Os-]([n+]1ccn(C)c1)[n+]1cscc1-2.Cc1ccc(C(C)C)cc1.O=[N+]([O-])O [Compound 4e, [((3-κN)-1-Methylimidazole)(4-(4-methoxyphenyl)thiazolato-κN,κC2′)(η^6-p-cymene)osmium(II)] Nitrate] |  |  |  | 24 ± 1 | 2.1 ± 0.5 | 8.1 ± 2.6 |  |
| CC(C)(C)OO [positive control, tert-butyl hydroperoxide, reference compound] |  |  |  |  |  |  | Elevation of ROS levels vs negative control (SW480 cells; positive control): more than 3 fold |
